Source: patent US9012678B2, “Processes for the preparation of fesoterodine” (Cadila Healthcare Limited, priority 2010, dated 2015)

Experiments:
[1] = Stability study for Fesoterodine Fumarate (description, water by KF, related substances by HPLC on storage); assay type: physicochemical
Protocol: As used herein, the term “stable fesoterodine fumarate” fesoterodine fumarate containing any individual impurities less than 0.15% after exposure to a relative humidity of 60% at 25° for a period of at least three months or after exposure to a relative humidity of 75% at 40° for a period of at least three months
2) High Performance Liquid Chromatography (HPLC) Method for Determination of Impurity X in Fesoterodine Fumarate of formula (1)
• Equipment: Shimadzu LC2010C HPLC system equipped with a wavelength UV-VIS detector or equivalent. • Column: Inertsil ODS-3 (250 mm×4.6 mm, 5 μm), Make: GL Sciences Part No: 5020-01732 • Flow rate: 1.2 mL/minute • Column oven temp: 30° C. • Wavelength: 220 nm • Injection volume: 10 μL • Run time: 60 minutes • Diluent: Premixed buffer and acetonitrile in the volume ratio of 75:25. Preparation of Buffer:
Transfer 1 mL orthophosphoric acid in 1000 mL volumetric flask containing about 500 mL of water and make up the volume with water. Filter through 0.2 μm membrane filter paper.
Weigh accurately and transfer about 25 mg of sample of Fesoterodine Fumarate or Fesoterodine Fumarate (technical) into a 50 mL volumetric flask. Add 5 mL tetrahydrofuran, sonicate to dissolve and make up the volume with diluent. Make fresh two preparations at the time of injection.
Inject sample solutions containing the chromatogram upto the end of gradient. Determine the area of each impurity using suitable integrator.

[2] = Particle Size Distribution (PSD) by laser diffraction in a Malvern Master Sizer; assay type: physicochemical
Protocol: Particle Size Distribution (PSD)” is determined by laser diffraction in a Malvern Master Sizer by using known method.

[3] = 2 Months 40° C. ± 2° C./RH 75% ± 5%, PSD: D(90) = 10 microns
[4] = 2 Months 40° C. ± 2° C./RH 75% ± 5%, PSD: D(90) = 270 microns
[5] = 3 Months 2 to 8° C., PSD: D(90) = 10 microns
[6] = 3 Months 2 to 8° C., PSD: D(90) = 270 microns
[7] = 3 Months 25° C. ± 2° C./RH 60% ± 5%, PSD: D(90) = 10 microns
[8] = 3 Months 25° C. ± 2° C./RH 60% ± 5%, PSD: D(90) = 270 microns
[9] = 3 Months 40° C. ± 2° C./RH 75% ± 5%, PSD: D(90) = 10 microns
[10] = 3 Months 40° C. ± 2° C./RH 75% ± 5%, PSD: D(90) = 270 microns
[11] = Initial, PSD: D(90) = 10 microns
[12] = Initial, PSD: D(90) = 270 microns

## CC(C)C(=O)Oc1ccc(CO)cc1[C@H](CCN(C(C)C)C(C)C)c1ccccc1.O=C(O)/C=C/C(=O)O [Fesoterodine Fumarate, isobutyric acid 2-[(R)-3-diisopropylammonium-1-phenylpropyl)-4-(hydroxy-methyl)phenyl ester hydrogen fumarate]
[1]; [3]
  Related substance (by HPLC) i) Diol: 0.07 % w/w
  Related substance (by HPLC) ii) Diester: BQL
  Related substance (by HPLC) iii) Oxidized (RRT 1.37): 0.27 % w/w
  Related substance (by HPLC) iv) Any individual impurities: 0.04 % w/w
  Related substance (by HPLC) v) Total impurities: 0.49 % w/w
  Water by KF: 0.12 % w/w
[1]; [4]
  Description: White
  Related substance i) Diol: 0.5%
  Related substance ii) Diester: 0.05%
  Related substance iii) Oxidized (RRT 1.37): 0.05%
  Related substance iv) Any individual impurities: 0.07%
  Related substance v) Total impurities: 0.22%
  Water by KF: 0.2 % w/w
[1]; [5]
  Description: White
  Related substance (by HPLC) i) Diol: 0.06 % w/w
  Related substance (by HPLC) ii) Diester: 0.03 % w/w
  Related substance (by HPLC) iii) Oxidized (RRT 1.37): 0.08 % w/w
  Related substance (by HPLC) iv) Any individual impurities: 0.03 % w/w
  Related substance (by HPLC) v) Total impurities: 0.21 % w/w
  Water by KF: 0.16 % w/w
[1]; [6]
  Description: White
  Related substance i) Diol: 0.06%
  Related substance ii) Diester: BQL
  Related substance iii) Oxidized (RRT 1.37): BQL
  Related substance iv) Any individual impurities: BQL
  Related substance v) Total impurities: 0.06%
  Water by KF: 0.16 % w/w
[1]; [7]
  Description: White
  Related substance (by HPLC) i) Diol: 0.09 % w/w
  Related substance (by HPLC) ii) Diester: BQL
  Related substance (by HPLC) iii) Oxidized (RRT 1.37): 0.19 % w/w
  Related substance (by HPLC) iv) Any individual impurities: 0.02 % w/w
  Related substance (by HPLC) v) Total impurities: 0.26 % w/w
  Water by KF: 0.16 % w/w
[1]; [8]
  Description: White
  Related substance i) Diol: 0.06%
  Related substance ii) Diester: BQL
  Related substance iii) Oxidized (RRT 1.37): BQL
  Related substance iv) Any individual impurities: BQL
  Related substance v) Total impurities: 0.06%
  Water by KF: 0.16 % w/w
[1]; [9]
  Description: White
  Related substance (by HPLC) i) Diol: 0.07 % w/w
  Related substance (by HPLC) ii) Diester: BQL
  Related substance (by HPLC) iii) Oxidized (RRT 1.37): 0.29 % w/w
  Related substance (by HPLC) iv) Any individual impurities: 0.04 % w/w
  Related substance (by HPLC) v) Total impurities: 0.49 % w/w
  Water by KF: 0.12 % w/w
[1]; [10]
  Description: White
  Related substance i) Diol: 0.6%
  Related substance ii) Diester: 0.06%
  Related substance iii) Oxidized (RRT 1.37): 0.06%
  Related substance iv) Any individual impurities: 0.04%
  Related substance v) Total impurities: 0.22%
  Water by KF: 0.12 % w/w
[1]; [11]
  Description: White
  Related substance (by HPLC) i) Diol: 0.06 % w/w
  Related substance (by HPLC) ii) Diester: 0.02 % w/w
  Related substance (by HPLC) iii) Oxidized (RRT 1.37): 0.05 % w/w
  Related substance (by HPLC) iv) Any individual impurities: 0.02 % w/w
  Related substance (by HPLC) v) Total impurities: 0.15 % w/w
  Water by KF: 0.2 % w/w
[1]; [12]
  Description: White
  Related substance i) Diol: 0.1%
  Related substance ii) Diester: 0.05%
  Related substance iii) Oxidized (RRT 1.37): 0.06%
  Related substance iv) Any individual impurities: 0.02%
  Related substance v) Total impurities: 0.21%
  Water by KF: 0.33 % w/w
[1]; fesoterodine fumarate with higher particle size
  degradation of fesoterodine under stress conditions: significantly slow down the degradation
[2]; batch from IPA/diisopropyl ether, D(90) less than 200 microns
  PSD: D(90): PSD: D(90) = 10 microns
[2]; batch of Example 16 (methyl ethyl ketone/cyclohexane, seeded), D(90) higher than 200 microns
  PSD: D(90): PSD: D(90) = 270 microns
